This experiment has as its target T1, human Werner helicase (WRN-BV08, Uniprot Q14191, amino acids 517-1235 with L1074F point mutation) (Homo sapiens, UniProt Q14191, L1074F).
T1 construct: Uniprot Q14191, amino acids 517-1235 with L1074F point mutation; TEV-cleavable 8×His (C, cleaved yes); made in house; host or cells: Sf9 insect cells (baculovirus)
As to the kind of experiment: WRN (BV08) ADP-Glo Assay. In kind it is biochemical. As to conditions: 0.15 nM WRN, 5 μM ATP, 0.1 nM DNA duplex, 15 min preincubation, 60 min at 25° C., pH 7.5, 1% DMSO; read-out: ADP-Glo_hWRN_IC50. The method, boiled down: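 Untagged WRN (Sf9-expressed, TEV-cleaved) at 0.15 nM was preincubated 15 min at 25 °C with compound, then reacted 60 min at 25 °C with 5 μM ATP and 0.1 nM DNA duplex in Bicine pH 7.5, 1 mM MgCl2. ADP-Glo luminescence gave % inhibition; IC50 by four-parameter fit.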
On the technique in general: In ADP-Glo the light output rises with the ADP produced.
T1 sequence (Q14191 with tags, fused parts or gaps L1074F limits assumed): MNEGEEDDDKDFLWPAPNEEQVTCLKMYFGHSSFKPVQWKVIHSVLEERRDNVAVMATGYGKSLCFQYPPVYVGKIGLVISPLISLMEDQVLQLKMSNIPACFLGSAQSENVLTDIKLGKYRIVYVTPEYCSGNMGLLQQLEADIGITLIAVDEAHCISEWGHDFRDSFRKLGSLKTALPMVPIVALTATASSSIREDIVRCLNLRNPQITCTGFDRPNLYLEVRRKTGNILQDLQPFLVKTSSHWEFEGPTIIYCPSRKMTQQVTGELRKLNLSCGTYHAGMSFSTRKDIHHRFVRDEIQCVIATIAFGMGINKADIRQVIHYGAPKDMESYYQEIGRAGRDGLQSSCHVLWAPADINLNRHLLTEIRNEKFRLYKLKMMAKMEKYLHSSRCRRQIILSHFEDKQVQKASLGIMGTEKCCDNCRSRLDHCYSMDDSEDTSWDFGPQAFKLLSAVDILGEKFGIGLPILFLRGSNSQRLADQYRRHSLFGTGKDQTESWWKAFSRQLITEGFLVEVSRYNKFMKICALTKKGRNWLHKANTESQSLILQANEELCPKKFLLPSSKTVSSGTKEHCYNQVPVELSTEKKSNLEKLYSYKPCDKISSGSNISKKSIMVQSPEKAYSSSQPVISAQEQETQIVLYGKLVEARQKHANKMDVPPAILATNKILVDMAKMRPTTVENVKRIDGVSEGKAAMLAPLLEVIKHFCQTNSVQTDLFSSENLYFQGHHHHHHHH
With `Cn1ncc2cc(CN(C(=O)Cc3ccc(-n4cccc4)cc3)C3C=CS(=O)(=O)C3)ccc21` (stereo not drawn) [I-226, N-(1,1-dioxo-2,3-dihydro-1lambda6-thiophen-3-yl)-N-[(1-methyl-1H-indazol-5-yl)methyl]-2-[4-(1H-pyrrol-1-yl)phenyl]acetamide], the IC50 was 5 to 10 µM.

Regarding `O=C(C1CC(c2ccccc2)O1)N(Cc1ccncc1)C1C=CS(=O)(=O)C1` (stereo not drawn) [I-647, N-(1,1-dioxo-2,3-dihydro-1lambda6-thiophen-3-yl)-4-phenyl-N-[(pyridin-4-yl)methyl]oxetane-2-carboxamide], the IC50 was greater than 50 µM.

As to `COC(C(=O)N(Cc1nc(C(C)(C)O)cs1)C1C=CS(=O)(=O)C1)c1ccc(-c2ccc(F)c(F)c2)cc1F` (single isomer, unassigned) [I-747, (2R*)-N-[(3R**)-1,1-dioxo-2,3-dihydro-1lambda6-thiophen-3-yl]-N-{[4-(2-hydroxypropan-2-yl)-1,3-thiazol-2-yl]methyl}-2-methoxy-2-{3,3′,4′-trifluoro-[1,1′-biphenyl]-4-yl}acetamide], the IC50 is 5 to 10 µM.

`COc1cc(CN(C(=O)Cn2ncc(-c3ccccc3)c2C)[C@@H]2C=CS(=O)(=O)C2)ccn1` [I-595, N-[(3R)-1,1-dioxo-2,3-dihydro-1lambda6-thiophen-3-yl]-N-[(2-methoxypyridin-4-yl)methyl]-2-(5-methyl-4-phenyl-1H-pyrazol-1-yl)acetamide]: the IC50 is 0.5 to 5 µM.

In the case of `COc1nccc(CN(C(=O)Cc2ccc(-n3cccc3C)cc2F)C2C=CS(=O)(=O)C2)n1` (stereo not drawn) [I-112, N-(1,1-dioxo-2,3-dihydro-1lambda6-thiophen-3-yl)-2-[2-fluoro-4-(2-methyl-1H-pyrrol-1-yl)phenyl]-N-[(2-methoxypyrimidin-4-yl)methyl]acetamide], the IC50 lay within 0.5 to 5 µM.

On to `O=C(Cc1ccc(-n2cccc2)cc1)N(Cc1cccc2cccnc12)C1C=CS(=O)(=O)C1` (stereo not drawn) [I-243, N-(1,1-dioxo-2,3-dihydro-1lambda6-thiophen-3-yl)-2-[4-(1H-pyrrol-1-yl)phenyl]-N-[(quinolin-8-yl)methyl]acetamide], for which the IC50 lay within 5 to 10 µM.

For the compound `O=C(Cc1ccc(-n2cccc2)cc1)N(c1ccccc1)C1C=CS(=O)(=O)C1` (stereo not drawn) [I-421, N-(1,1-dioxo-2,3-dihydro-1lambda6-thiophen-3-yl)-N-phenyl-2-[4-(1H-pyrrol-1-yl)phenyl]acetamide], the IC50 was greater than 50 µM.

For the compound `O=C(Cn1cc2ccc(C(F)(F)F)cc2n1)N(Cc1ccncc1)C1C=CS(=O)(=O)C1` (stereo not drawn) [I-183, N-(1,1-dioxo-2,3-dihydro-1lambda6-thiophen-3-yl)-N-[(pyridin-4-yl)methyl]-2-[6-(trifluoromethyl)-2H-indazol-2-yl]acetamide], the IC50 was in the range of 0.5 to 5 µM.

Take `CCc1csc(CN(C(=O)Cc2ccc(S(F)(F)(F)(F)F)cc2)C2C=CS(=O)(=O)C2)n1` (stereo not drawn) [I-628, N-(1,1-dioxo-2,3-dihydro-1lambda6-thiophen-3-yl)-N-[(4-ethyl-1,3-thiazol-2-yl)methyl]-2-[4-(pentafluoro-lambda6-sulfanyl)phenyl]acetamide]: the IC50 is less than 0.5 µM.

Regarding `CSc1ccc(CC(=O)N(Cc2ccncc2)C2C=CS(=O)(=O)C2)cc1` (stereo not drawn) [I-339, N-(1,1-dioxo-2,3-dihydro-1lambda6-thiophen-3-yl)-2-[4-(methylsulfanyl)phenyl]-N-[(pyridin-4-yl)methyl]acetamide], the IC50 lay within 10 to 50 µM.

As for `CC(C)(O)c1cc(CN(C(=O)C2Cc3cc(C(F)(F)F)ccc3O2)C2C=CS(=O)(=O)C2)ccn1` (stereo not drawn) [I-131, N-(1,1-dioxo-2,3-dihydro-1lambda6-thiophen-3-yl)-N-{[2-(2-hydroxypropan-2-yl)pyridin-4-yl]methyl}-5-(trifluoromethyl)-2,3-dihydro-1-benzofuran-2-carboxamide], the IC50 fell in the range of 0.5 to 5 µM.

Consider `COC(C(=O)N(Cc1ccncc1)C1C=CS(=O)(=O)C1)c1ccc(-c2ccc(F)cc2)cc1` (single isomer, unassigned) [I-72, (2R*)-N-[(3R**)-1,1-dioxo-2,3-dihydro-1lambda6-thiophen-3-yl]-2-{4′-fluoro-[1,1′-biphenyl]-4-yl}-2-methoxy-N-[(pyridin-4-yl)methyl]acetamide], for which the IC50 was less than 0.5 µM.

Turning to `CC(C)(O)c1cc(CN(C(=O)Cn2cc3cc(C(F)(F)F)ccc3n2)C2C=CS(=O)(=O)C2)ccn1` (single isomer, unassigned) [I-676], the IC50 is less than 0.5 µM.

As for `COc1cc(CN(C(=O)C(C(=O)N(C)C)c2ccc(-c3ccc(F)cc3)cc2F)C2C=CS(=O)(=O)C2)ccn1` (stereo not drawn) [I-46, 2-{3,4′-difluoro-[1,1′-biphenyl]-4-yl}-N-(1,1-dioxo-2,3-dihydro-1lambda6-thiophen-3-yl)-N-[(2-methoxypyridin-4-yl)methyl]-N′,N′-dimethylpropanediamide], the IC50 is less than 0.5 µM.

With `CC(C)(O)c1cc(CN(C(=O)C(F)c2ccc(-c3ccc(F)c(F)c3)cc2F)C2C=CS(=O)(=O)C2)ccn1` (stereo not drawn) [I-77, N-(1,1-dioxo-2,3-dihydro-1lambda6-thiophen-3-yl)-2-fluoro-N-{[2-(2-hydroxypropan-2-yl)pyridin-4-yl]methyl}-2-{3,3′,4′-trifluoro-[1,1′-biphenyl]-4-yl}acetamide], the IC50 is less than 0.5 µM.

Turning to `COc1cc(CN(C(=O)C(C(=O)N(C)C)c2ccc(-c3ccc(F)cc3)cc2)C2C=CS(=O)(=O)C2)ccn1` (stereo not drawn) [I-55, N-(1,1-dioxo-2,3-dihydro-1lambda6-thiophen-3-yl)-2-{4′-fluoro-[1,1′-biphenyl]-4-yl}-N-[(2-methoxypyridin-4-yl)methyl]-N′,N′-dimethylpropanediamide], the IC50 is less than 0.5 µM.

For `O=C(Cn1nc(-c2ccccc2)ccc1=O)N(Cc1ccncc1)C1C=CS(=O)(=O)C1` (stereo not drawn) [I-326, N-(1,1-dioxo-2,3-dihydro-1lambda6-thiophen-3-yl)-2-(6-oxo-3-phenyl-1,6-dihydropyridazin-1-yl)-N-[(pyridin-4-yl)methyl]acetamide], the IC50 fell in the range of 10 to 50 µM.

As for `CC(O)(c1cc(CN(C(=O)Cn2cc(-c3cc(F)c(F)c(F)c3)cn2)C2C=CS(=O)(=O)C2)ccn1)C1CC1` (stereo not drawn) [I-826, N-{[2-(1-cyclopropyl-1-hydroxyethyl)pyridin-4-yl]methyl}-N-(1,1-dioxo-2,3-dihydro-1lambda6-thiophen-3-yl)-2-[4-(3,4,5-trifluorophenyl)-1H-pyrazol-1-yl]acetamide], the IC50 was less than 0.5 µM.

For `O=C(c1c[nH]c2cc(-c3ccc(F)cc3)ccc12)N(Cc1ccncc1)C1C=CS(=O)(=O)C1` (stereo not drawn) [I-423, N-(1,1-dioxo-2,3-dihydro-1lambda6-thiophen-3-yl)-6-(4-fluorophenyl)-N-[(pyridin-4-yl)methyl]-1H-indole-3-carboxamide], the IC50 is greater than 50 µM.

As for `COc1cc(CN(C(=O)C(OC2CS(=O)(=O)C2)c2ccc(-c3ccc(F)c(F)c3)cc2F)[C@@H]2C=CS(=O)(=O)C2)ccn1` (single isomer, unassigned) [I-834, (2R*)-2-[(1,1-dioxo-1lambda6-thietan-3-yl)oxy]-N-[(3R)-1,1-dioxo-2,3-dihydro-1lambda6-thiophen-3-yl]-N-[(2-methoxypyridin-4-yl)methyl]-2-{3,3′,4′-trifluoro-[1,1′-biphenyl]-4-yl}acetamide], the IC50 was greater than 50 µM.

In the case of `COc1cc(CN(C(=O)C(c2ccc(-c3ccc(F)c(F)c3)cc2F)n2cc(C#N)cn2)[C@@H]2C=CS(=O)(=O)C2)ccn1` (single isomer, unassigned) [I-712, (2R*)-2-(4-cyano-1H-pyrazol-1-yl)-N-[(3R)-1,1-dioxo-2,3-dihydro-1lambda6-thiophen-3-yl]-N-[(2-methoxypyridin-4-yl)methyl]-2-{3,3′,4′-trifluoro-[1,1′-biphenyl]-4-yl}acetamide], the IC50 lay within 0.5 to 5 µM.

Regarding `CN(C)C(=O)C(C(=O)N(Cc1ccnc(C(C)(C)O)c1)C1C=CS(=O)(=O)C1)c1ccc(-c2ccc(F)cc2)cc1` (single isomer, unassigned) [I-271, (2R**)-N-[(3R*)-1,1-dioxo-2,3-dihydro-1lambda6-thiophen-3-yl]-2-{4′-fluoro-[1,1′-biphenyl]-4-yl}-N-{[2-(2-hydroxypropan-2-yl)pyridin-4-yl]methyl}-N′,N′-dimethylpropanediamide], the IC50 lay in the range of 5 to 10 µM.

For the compound `COc1cc(CN(C(=O)Cc2ccc(C3CC(F)C3)cc2F)[C@@H]2C=CS(=O)(=O)C2)ccn1` (stereo partly drawn) [I-591, N-[(3R)-1,1-dioxo-2,3-dihydro-1lambda6-thiophen-3-yl]-2-[2-fluoro-4-(3-fluorocyclobutyl)phenyl]-N-[(2-methoxypyridin-4-yl)methyl]acetamide], the IC50 is 0.5 to 5 µM.

As for `O=C(CC1CC(c2ccccc2)C1)N(Cc1ccncc1)C1C=CS(=O)(=O)C1` (stereo not drawn) [I-584, N-(1,1-dioxo-2,3-dihydro-1lambda6-thiophen-3-yl)-2-(3-phenylcyclobutyl)-N-[(pyridin-4-yl)methyl]acetamide], the IC50 is greater than 50 µM.

On to `O=C(Cc1nc(C(F)(F)F)cs1)N(Cc1ccncc1)C1C=CS(=O)(=O)C1` (stereo not drawn) [I-371, N-(1,1-dioxo-2,3-dihydro-1lambda6-thiophen-3-yl)-N-[(pyridin-4-yl)methyl]-2-[4-(trifluoromethyl)-1,3-thiazol-2-yl]acetamide], for which the IC50 is greater than 50 µM.

Turning to `O=C(N[C@H](Cc1c[nH]c2ccccc12)C(=O)N(Cc1ccncc1)C1C=CS(=O)(=O)C1)C1CC1` (stereo partly drawn) [I-397, (2R)-2-(cyclopropylformamido)-N-(1,1-dioxo-2,3-dihydro-1lambda6-thiophen-3-yl)-3-(1H-indol-3-yl)-N-[(pyridin-4-yl)methyl]propanamide], the IC50 was greater than 50 µM.

On to `CNC(=O)CC(C(=O)N(Cc1ccnc(OC)c1)C1C=CS(=O)(=O)C1)c1ccc(-c2ccc(F)cc2)cc1` (stereo not drawn) [I-574, N-(1,1-dioxo-2,3-dihydro-1lambda6-thiophen-3-yl)-2-{4′-fluoro-[1,1′-biphenyl]-4-yl}-N-[(2-methoxypyridin-4-yl)methyl]-N′-methylbutanediamide], for which the IC50 is greater than 50 µM.

(Values after US20260297070A1, “CYCLIC [COMPOUND LEFT OUT] WRN INHIBITORS” (Nimbus Wadjet, Inc., priority 2023, published 2026).)
